{"source": "patent US20080171716A1", "about": "“NUCLEIC ACID MODULATION OF TOLL-LIKE RECEPTOR-MEDIATED IMMUNE STIMULATION” (Protiva Biotherapeutics, Inc., priority 2006, published 2008)", "biological_target": "T1, TLR7 (Mus musculus, UniProt P58681)", "T1 sequence (P58681 27-1050)": "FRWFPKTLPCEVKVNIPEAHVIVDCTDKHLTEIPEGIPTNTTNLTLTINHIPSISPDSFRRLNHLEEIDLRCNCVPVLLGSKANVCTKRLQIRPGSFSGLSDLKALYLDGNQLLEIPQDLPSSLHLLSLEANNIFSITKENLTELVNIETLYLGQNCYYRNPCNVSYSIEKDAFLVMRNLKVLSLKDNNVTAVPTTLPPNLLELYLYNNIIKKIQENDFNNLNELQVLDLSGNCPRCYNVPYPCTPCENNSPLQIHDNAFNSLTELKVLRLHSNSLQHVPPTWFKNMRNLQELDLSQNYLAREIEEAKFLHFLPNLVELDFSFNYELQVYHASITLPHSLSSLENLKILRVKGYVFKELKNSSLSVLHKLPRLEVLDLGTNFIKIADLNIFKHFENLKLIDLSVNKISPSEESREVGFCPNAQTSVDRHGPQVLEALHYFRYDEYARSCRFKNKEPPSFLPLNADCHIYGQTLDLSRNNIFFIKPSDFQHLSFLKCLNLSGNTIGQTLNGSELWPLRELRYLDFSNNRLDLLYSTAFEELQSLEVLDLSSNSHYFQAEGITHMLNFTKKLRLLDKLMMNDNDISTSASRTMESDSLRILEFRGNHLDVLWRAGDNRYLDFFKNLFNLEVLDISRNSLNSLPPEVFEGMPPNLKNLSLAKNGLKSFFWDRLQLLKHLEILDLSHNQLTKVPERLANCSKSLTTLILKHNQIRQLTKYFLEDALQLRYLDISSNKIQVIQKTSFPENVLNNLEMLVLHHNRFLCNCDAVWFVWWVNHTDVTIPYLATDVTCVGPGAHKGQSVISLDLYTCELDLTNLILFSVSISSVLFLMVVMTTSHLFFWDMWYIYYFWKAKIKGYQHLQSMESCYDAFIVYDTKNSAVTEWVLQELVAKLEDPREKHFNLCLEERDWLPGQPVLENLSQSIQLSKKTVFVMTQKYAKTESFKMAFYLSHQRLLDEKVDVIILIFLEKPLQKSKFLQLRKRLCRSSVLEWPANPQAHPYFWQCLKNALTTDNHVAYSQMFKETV", "test": "In vivo cytokine induction by formulated ssRNA in mice", "parameters": "from tissue; host or cells: whole animal: female Balb/C mice, plasma cytokines; species or system Balb/C mice", "conditions": "IV", "description": "Cytokine ELISA. All cytokines were quantified using sandwich ELISA kits according to the manufacturer's instructions. These were mouse and human IFN-α (PBL Biomedical; Piscataway, N.J.) and IL-6 (eBioscience; San Diego, Calif.).\nIn Vivo Cytokine Induction. Animal studies were performed at Protiva Biotherapeutics in accordance with Canadian Council on Animal Care guidelines and following protocol approval by the local Animal Care and Use Committee. Female Balb/C mice were subjected to a two-week quarantine and acclimation period prior to use at six to eight-weeks of age. RNA formulations were administered by standard injection in the lateral tail vein in 0.2 ml PBS. Six hours after injection, blood was collected by cardiac puncture and processed as plasma for cytokine analysis. In experiments studying inhibition of cytokine induction by loxoribine, formulated RNA (100 μg) was administered IV 2 h prior to IV administration of 1 mg loxoribine in PBS. Blood was collected by cardiac puncture 2 h after administration of loxoribine and processed as plasma for cytokine analysis.", "key": {"[1]": {"conditions": "1:1 molar ratio in lipid particles, 40 μg βgal AS RNA, plasma 6 h"}, "[2]": {"conditions": "plasma 6 h after administration"}}}
{"substance": "polyUmod21: 2′OMe-uridine homopolymer of 21 nucleotides in length (UUUUUUUUUUUUUUUUUUUUU; all 2'-O-methyl, backbone not given here)", "values": [{"measurement": "IFN-α induction by ssRNA agonist when co-formulated", "setting": "[1]", "value": "eliminated measurable"}, {"measurement": "IL-6 induction by ssRNA agonist when co-formulated", "setting": "[1]", "value": "eliminated measurable"}, {"measurement": "plasma IFN-α after administration of the formulated RNA alone", "setting": "[2]", "value": "no measurable cytokine response"}, {"measurement": "plasma IL-6 after administration of the formulated RNA alone", "setting": "[2]", "value": "no measurable cytokine response"}]}
